Experimental findings from US20050065118A1, “Organosulfur inhibitors of tyrosine phosphatases” (priority 2001, published 2005) are described below.

As a reminder, the melting point is the temperature of the solid-liquid transition.

The compound `FC(F)(F)Oc1cccc(COc2cccc(-c3nnc(Nc4ccc(Cl)c(Cl)c4)s3)c2)c1` [Example 129, (3,4-dichlorophenyl)[5-(3-{[3-(trifluoromethoxy)phenyl]methoxy}phenyl)(1,3,4-thiadiazol-2-yl)]amine] yielded a melting point of 166 to 167 °C.
The compound `CCOc1cccc(-c2nnc(N(Cc3cccc([N+](=O)[O-])c3)c3ccc(Cl)c(Cl)c3)s2)c1` [Example 147, (3,4-dichlorophenyl)[5-(3-ethoxyphenyl)(1,3,4-thiadiazol-2-yl)][(3-nitrophenyl)methyl]amine] gave a melting point of 114 to 115 °C.
For `COc1ccc(Oc2cccc(-c3nnc(Nc4ccc(Cl)c(Cl)c4)s3)c2)cc1` [Example 150, (3,4-dichlorophenyl)(5-[3-(4-methoxyphenoxy)phenyl](1,3,4-thiadiazol-2-yl)}amine], the melting point lay within 198 to 199 °C.
With `Cc1ccc(Oc2cccc(-c3nnc(Nc4ccc(Cl)c(Cl)c4)s3)c2)cc1` [Example 151, (3,4-dichlorophenyl){5-[3-(4-methylphenoxy)phenyl](1,3,4-thiadiazol-2-yl)}amine] the figure was 210 to 211 °C.
With `Clc1cc(Cl)cc(Oc2cccc(-c3nnc(Nc4ccc(Cl)c(Cl)c4)s3)c2)c1` [Example 152, (3,4-dichlorophenyl){5-[3-(3,5-dichlorophenoxy)phenyl](1,3,4-thiadiazol-2-yl)}amine] the figure was 242 to 243 °C; with `Clc1ccc(Nc2nnc(-c3cccc(Oc4ccc(Cl)c(Cl)c4)c3)s2)cc1Cl` [Example 153, (3,4-dichlorophenyl)(5-[3-(3,4-dichlorophenoxy)phenyl](1,3,4-thiadiazol-2-yl)}amine], 189 to 190 °C.
The figure for `FC(F)(F)c1cccc(Oc2cccc(-c3nnc(Nc4ccc(Cl)c(Cl)c4)s3)c2)c1` [Example 154, (3,4-dichlorophenyl)(5-{3-[3-(trifluoromethyl)phenoxy]phenyl}(1,3,4-thiadiazol-2-yl))amine] is 212 to 213 °C.
With `O=C(O)c1ccc(CN(c2ccc(Cl)c(Cl)c2)c2nnc(-c3cccc(Oc4cccc(C(F)(F)F)c4)c3)s2)cc1` [Example 157, 4-{[(3,4-dichlorophenyl)(5-{3-[3-(trifluoromethyl)phenoxy]phenyl}-(1,3,4-thiadiazol-2-yl))amino]methyl}benzoic acid], the melting point was 114 to 116 °C.
Consider `Nc1nnc(-c2cccc(Oc3cccc(COc4ccc(Cl)c(Cl)c4)c3)c2)s1` [Example 158, (3,4-dichlorophenyl)(5-{3-[3-(oxymethyl)phenoxy]phenyl)(1,3,4-thiadiazol-2-yl))amine], for which the melting point fell in the range of 128 to 130 °C.
The compound `Clc1ccc(Nc2nnc(-c3cc(OCc4ccccc4)cc(OCc4ccccc4)c3)s2)cc1Cl` [Example 160, (3,4-dichlorophenyl){5-[3,5-bis(phenylmethoxy)phenyl](1,3,4-thiadiazol-2-yl)}amine] displayed a melting point of 212 to 214 °C.
With `Clc1ccc(Nc2nnc(-c3ccc4nonc4c3)s2)cc1Cl` [Example 162, (5-benzo[c]1,2,5-oxadiazol-5-yl(1,3,4-thiadiazol-2-yl))(3,4-dichlorophenyl)amine] the figure was 315 to 317 °C; with `CC(=NNc1ccc(C(=O)O)cc1)c1cccc(Nc2nnc(-c3cccc(Oc4cccc(C(F)(F)F)c4)c3)s2)c1` [Example 165, 4-{N′-[1-(3-{5-[3-(3-Trifluoromethyl-phenoxy)-phenyl]-[1,3,4]thiadiazol-2-ylamino}-phenyl)-ethylidene]-hydrazino}-benzoic acid], 277.5 to 279 °C.
For `O=C(O)c1ccc(CNc2nnc(-c3cccc(Oc4ccccc4)c3)s2)cc1` [Example 166, 4-({[5-(3-phenoxyphenyl)-1,3,4-thiadiazol-2-yl]amino}methyl)benzoic acid], the melting point lay in the range of 192 to 195 °C.
